US9938273B2 (Plexxikon Inc., priority 2015, dated 2018)

target: T1, FLT3-D835Y (Homo sapiens, UniProt P36888, D835Y); test: AlphaScreen kinase assay with recombinant enzyme, FLT3-D835Y; format: biochemical; conditions: 8pt, GMean
T1 construct: purchased Invitrogen PV3967
T1 sequence (P36888 27-993 D835Y): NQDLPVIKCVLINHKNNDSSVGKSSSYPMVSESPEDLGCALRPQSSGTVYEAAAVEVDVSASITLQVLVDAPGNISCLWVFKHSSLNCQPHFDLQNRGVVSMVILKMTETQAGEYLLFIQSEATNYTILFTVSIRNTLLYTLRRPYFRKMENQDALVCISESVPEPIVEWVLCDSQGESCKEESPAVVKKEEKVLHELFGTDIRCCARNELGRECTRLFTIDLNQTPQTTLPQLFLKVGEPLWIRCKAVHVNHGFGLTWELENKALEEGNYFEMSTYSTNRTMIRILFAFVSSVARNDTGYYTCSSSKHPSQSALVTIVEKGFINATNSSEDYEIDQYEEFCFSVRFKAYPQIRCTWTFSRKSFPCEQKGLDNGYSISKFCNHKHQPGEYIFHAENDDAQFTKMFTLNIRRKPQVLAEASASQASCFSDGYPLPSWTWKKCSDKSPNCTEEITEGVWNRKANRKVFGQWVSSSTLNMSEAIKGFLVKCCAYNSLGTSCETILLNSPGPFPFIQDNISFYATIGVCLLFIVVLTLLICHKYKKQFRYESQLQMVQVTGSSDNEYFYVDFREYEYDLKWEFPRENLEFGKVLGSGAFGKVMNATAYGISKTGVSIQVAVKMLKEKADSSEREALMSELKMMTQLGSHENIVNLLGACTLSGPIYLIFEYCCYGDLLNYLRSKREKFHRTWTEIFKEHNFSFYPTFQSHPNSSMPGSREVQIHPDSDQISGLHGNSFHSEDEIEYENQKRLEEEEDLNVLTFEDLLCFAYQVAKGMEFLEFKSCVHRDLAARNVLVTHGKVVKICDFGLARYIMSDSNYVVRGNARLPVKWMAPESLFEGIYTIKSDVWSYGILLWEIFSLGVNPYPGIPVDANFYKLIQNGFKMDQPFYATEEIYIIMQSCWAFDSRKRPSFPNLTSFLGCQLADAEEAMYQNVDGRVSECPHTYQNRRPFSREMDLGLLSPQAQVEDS
How it was run: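 Tyrosine phosphorylation of biotin-poly(Glu4-Tyr) substrate by recombinant enzyme is detected with PY20 acceptor and streptavidin donor beads after room-temperature incubations of 20 and 60 min. IC50 values were derived at a final 10 μM (FLT3-D835Y, FLT3-ITD) or 100 μM (c-KIT).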

IC50, 0.0001 to 10 µM:
CCNC(=O)NC1CCN(C(=O)c2cccc(-c3cnc4[nH]c(-c5ccccc5)cc4c3)n2)CC1 [Compound P-0031, 1-ethyl-3-[1-[6-(2-phenyl-1H-pyrrolo[2,3-b]pyridin-5-yl)pyridine-2-carbonyl]-4-piperidyl]urea]
O=C(NC1CCNC1)c1cccc(-c2cnc3[nH]c(-c4ccccc4)cc3c2)n1 (stereo not drawn) [Compound P-0045, 6-(2-phenyl-1H-pyrrolo[2,3-b]pyridin-5-yl)-N-pyrrolidin-3-yl-pyridine-2-carboxamide]
N=C(N)N1CCN(C(=O)c2cccc(-c3cnc4[nH]c(-c5ccccc5)cc4c3)n2)CC1 [Compound P-0057, 4-[6-(2-phenyl-1H-pyrrolo[2,3-b]pyridin-5-yl)pyridine-2-carbonyl]piperazine-1-carboxamidine]
COC(=O)C1(C)CCN(C(=O)c2cccc(-c3cnc4[nH]c(-c5ccccc5)cc4c3)n2)CC1 [Compound P-0092, methyl 4-methyl-1-[6-(2-phenyl-1H-pyrrolo[2,3-b]pyridin-5-yl)pyridine-2-carbonyl]piperidine-4-carboxylate]
CNC1CCN(Cc2cccc(-c3cnc4[nH]c(-c5ccccc5)cc4c3)n2)C1 (stereo not drawn) [Compound P-0087, N-methyl-1-[[6-(2-phenyl-1H-pyrrolo[2,3-b]pyridin-5-yl)-2-pyridyl]methyl]pyrrolidin-3-amine]
NC1CCN(C(=O)c2cc(-c3cnc4[nH]c(-c5ccccc5)cc4c3)ccn2)CC1 [Compound P-0038, (4-amino-1-piperidyl)-[4-(2-phenyl-1H-pyrrolo[2,3-b]pyridin-5-yl)-2-pyridyl]methanone]
